These are literature values, as cited in patent US20250073140A1, “ANTIPERSPIRANT COMPOSITIONS CONTAINING A SYNERGISTIC COMBINATION OF COPPER, ALUMINUM, TIN, ZINC, ZIRCONIUM, AND SILVER SALTS, AND, METHODS OF USING” (priority 2023, published 2025).

The conditions of this series: literature report.

In the case of `[Cl][Cu][Cl]` [copper chloride], the antiperspirant activity entry is listed as “demonstrated to have antiperspirant activity”.
